≈ marks a conversion by molar mass, not a printed value.

One experiment relates to MRSA 43300. The experiment in a line: Antibacterial activity, NCCLS dilution method (Table 9). In kind it is cell-based, S. aureus. The note with it: Staphylococcus aureus, MRSA, MRSA 43300; dilution method; labels marked a tested as a mixture of diastereomers; read-out: MRSA 43300 MIC. An excerpt: NCCLS standards for antimicrobial susceptibility testing using the dilution method were followed. See: Performance Standards for Antimicrobial Susceptibility Testing; Fourteenth Informational Supplement. NCCLS Document M100-S14 (ISBN 1-56238-516-X), 2004. NCCLS, 940 West Valley Road, Suite 1400, Wayne, Pa. 19087-1898 USA, 2004; Methods for Dilution Antimicrobial Susceptibility Tests for Bacteria that Grow Aerobically; Approved Standard—Sixth Edition. NCCLS document M7-A6 (IBSBN 1-56238-486-4), NCCLS, 940 West Valley Road, Suite 1400, Wayne, Pa. 19087-1898 USA, 2003, which are hereby incorporated by reference in their entirety.
One may read the MIC as the lowest concentration that inhibits growth of the organism. In the case of `CO[C@@H]1[C@@H](O)[C@@H](OC)C(NC2=CC(=O)c3c(cc4c(c3O)C(=O)[C@]3(OC)[C@H](O)Cc5cc(C)c(C(=O)NCCCc6ccccc6)c(O)c5[C@]3(O)C4=O)C2=O)O[C@H]1C` (mixture of isomers) [Example 25, (6R,6aS,14aR)-1,6,8,14a-Tetrahydroxy-11-((3R,4R,5R,6S)-4-hydroxy-3,5-dimethoxy-6-methyltetrahydro-2H-pyran-2-ylamino)-6a-methoxy-3-methyl-7,9,12,14-tetraoxo-N-(3-phenylpropyl)-5,6,6a,7,9,12,14,14a-octahydrobenzo[a]tetracene-2-carboxamide], the MIC fell in the range of 2 to 4 µg/mL (≈ 2.5 to 4.99 µM).
For the compound `COC(=O)c1c(C)cc2c(c1OCC(=O)O)[C@]1(O)C(=O)c3cc4c(c(O)c3C(=O)[C@]1(OC)[C@H](O)C2)C(=O)C=C(NC1O[C@@H](C)[C@H](OC)[C@@H](O)[C@H]1OC)C4=O` (stereo partly drawn) [Example 9, 2-((6R,6aS,14aR)-6,8,14a-Trihydroxy-11-((3R,4R,5R,6S)-4-hydroxy-3,5-dimethoxy-6-methyltetrahydro-2H-pyran-2-ylamino)-6a-methoxy-2-(methoxycarbonyl)-3-methyl-7,9,12,14-tetraoxo-5,6,6a,7,9,12,14,14a-octahydrobenzo[a]tetracen-1-yloxy)acetic acid], the minimum inhibitory concentration (MIC) was 32 µg/mL (≈ 42.3 µM).
`CO[C@@H]1[C@@H](O)[C@@H](OC)C(NC2=CC(=O)c3c(cc4c(c3O)C(=O)[C@]3(OC)[C@H](O)Cc5cc(C)c(C(=O)NC(C)C)c(O)c5[C@]3(O)C4=O)C2=O)O[C@H]1C` (mixture of isomers) [Example 31, (6R,6aS,14aR)-1,6,8,14a-Tetrahydroxy-11-((3R,4R,5R,6S)-4-hydroxy-3,5-dimethoxy-6-methyltetrahydro-2H-pyran-2-ylamino)-N-isopropyl-6a-methoxy-3-methyl-7,9,12,14-tetraoxo-5,6,6a,7,9,12,14,14a-octahydrobenzo[a]tetracene-2-carboxamide]: the MIC was found to be 2 µg/mL (≈ 2.76 µM).
`CO[C@@H]1[C@@H](O)[C@@H](OC)C(NC2=CC(=O)c3c(cc4c(c3O)C(=O)[C@]3(OC)[C@H](O)Cc5cc(C)c(C(=O)NC6CCCCC6)c(O)c5[C@]3(O)C4=O)C2=O)O[C@H]1C` (mixture of isomers) [Example 18, (6R,6aS,14aR)—N-Cyclohexyl-1,6,8,14a-tetrahydroxy-11-((3R,4R,5R,6S)-4-hydroxy-3,5-dimethoxy-6-methyltetrahydro-2H-pyran-2-ylamino)-6a-methoxy-3-methyl-7,9,12,14-tetraoxo-5,6,6a,7,9,12,14,14a-octahydrobenzo[a]tetracene-2-carboxamide]: the MIC is 2 µg/mL (≈ 2.62 µM).
Regarding `CO[C@@H]1[C@@H](O)[C@@H](OC)C(NC2=CC(=O)c3c(cc4c(c3O)C(=O)[C@]3(OC)[C@H](O)Cc5cc(C)c(C(=O)Nc6ccc(-c7ccccc7)cc6)c(O)c5[C@]3(O)C4=O)C2=O)O[C@H]1C` (mixture of isomers) [Example 23, (6R,6aS,14aR)—N-(Biphenyl-4-yl)-1,6,8,14a-tetrahydroxy-11-((3R,4R,5R,6S)-4-hydroxy-3,5-dimethoxy-6-methyltetrahydro-2H-pyran-2-ylamino)-6a-methoxy-3-methyl-7,9,12,14-tetraoxo-5,6,6a,7,9,12,14,14a-octahydrobenzo[a]tetracene-2-carboxamide], the MIC worked out at 4 µg/mL (≈ 4.79 µM).
Same read-out and setting: next, `COCCC/N=C1\C=C(N[C@H]2O[C@@H](C)[C@H](OC)[C@@H](O)[C@H]2OC)C(=O)c2cc3c(c(O)c21)C(=O)[C@]1(OC)[C@H](O)Cc2cc(C)c(C(=O)OC)c(O)c2[C@]1(O)C3=O` [Example 47, (6R,6aS,14aR,E)-Methyl 1,6,8,14a-tetrahydroxy-11-((2S,3R,4R,5R,6S)-4-hydroxy-3,5-dimethoxy-6-methyltetrahydro-2H-pyran-2-ylamino)-6a-methoxy-9-(3-methoxypropylimino)-3-methyl-7,12,14-trioxo-5,6,6a,7,9,12,14,14a-octahydrobenzo[a]tetracene-2-carboxylate]: 1 to 2 µg/mL (≈ 1.3 to 2.6 µM).
Still for that read-out and setting: next, `CO/N=C1/[C@@H](OC)[C@H](C)O[C@H](NC2=CC(=O)c3c(cc4c(c3O)C(=O)[C@]3(OC)[C@H](O)Cc5cc(C)c(C(=O)OC)c(O)c5[C@]3(O)C4=O)C2=O)[C@@H]1OC` [Example 50, (6R,6aS,14aR)-Methyl 11-((2S,3R,5R,6S,Z)-3,5-dimethoxy-4-(methoxyimino)-6-methyltetrahydro-2H-pyran-2-ylamino)-1,6,8,14a-tetrahydroxy-6a-methoxy-3-methyl-7,9,12,14-tetraoxo-5,6,6a,7,9,12,14,14a-octahydrobenzo[a]tetracene-2-carboxylate]: 0.25 µg/mL (≈ 0.345 µM); `COC(=O)c1c(C)cc2c(c1OCC(N)=O)[C@]1(O)C(=O)c3cc4c(c(O)c3C(=O)[C@]1(OC)[C@H](O)C2)C(=O)C=C(NC1O[C@@H](C)[C@H](OC)[C@@H](O)[C@H]1OC)C4=O` (stereo partly drawn) [Example 10, (6R,6aS,14aR)-Methyl 1-(2-amino-2-oxoethoxy)-6,8,14a-trihydroxy-11-((3R,4R,5R,6S)-4-hydroxy-3,5-dimethoxy-6-methyltetrahydro-2H-pyran-2-ylamino)-6a-methoxy-3-methyl-7,9,12,14-tetraoxo-5,6,6a,7,9,12,14,14a-octahydrobenzo[a]tetracene-2-carboxylate]: 32 µg/mL (≈ 42.4 µM); `CO[C@@H]1[C@@H](O)[C@@H](OC)C(NC2=CC(=O)c3c(cc4c(c3O)C(=O)[C@]3(OC)[C@H](O)Cc5cc(C)c(C(=O)NCc6ccc(Cl)cc6)c(O)c5[C@]3(O)C4=O)C2=O)O[C@H]1C` (mixture of isomers) [Example 27, (6R,6aS,14aR)—N-(4-Chlorobenzyl)-1,6,8,14a-tetrahydroxy-11-((3R,4R,5R,6S)-4-hydroxy-3,5-dimethoxy-6-methyltetrahydro-2H-pyran-2-ylamino)-6a-methoxy-3-methyl-7,9,12,14-tetraoxo-5,6,6a,7,9,12,14,14a-octahydrobenzo[a]tetracene-2-carboxamide]: 8 µg/mL (≈ 9.91 µM).
Regarding `COC(=O)COc1c(C(=O)OC)c(C)cc2c1[C@]1(O)C(=O)c3cc4c(c(O)c3C(=O)[C@]1(OC)[C@H](O)C2)C(=O)C=C(N[C@H]1O[C@@H](C)[C@H](OC)[C@@H](O)[C@H]1OC)C4=O` [Example 6, (6R,6aS,14aR)-Methyl 6,8,14a-trihydroxy-11-((2S,3R,4R,5R,6S)-4-hydroxy-3,5-dimethoxy-6-methyltetrahydro-2H-pyran-2-ylamino)-6a-methoxy-1-(2-methoxy-2-oxoethoxy)-3-methyl-7,9,12,14-tetraoxo-5,6,6a,7,9,12,14,14a-octahydrobenzo[a]tetracene-2-carboxylate], the MIC turned out to be 0.12 µg/mL (≈ 0.156 µM).

The experiment is the same for the next values; noted with them: Staphylococcus aureus, MRSA, read-out: MRSA 43300 MIC.
For the compound `COC(=O)c1c(C)c(N)c2c(c1O)[C@]1(O)C(=O)c3cc4c(c(O)c3C(=O)[C@]1(OC)[C@H](O)C2)C(=O)C=C(N[C@H]1O[C@@H](C)[C@H](OC)[C@@H](O)[C@H]1OC)C4=O` [Example 42, (6R,6aS,14aR)-Methyl 4-amino-1,6,8,14a-tetrahydroxy-11-((2S,3R,4R,5R,6S)-4-hydroxy-3,5-dimethoxy-6-methyltetrahydro-2H-pyran-2-ylamino)-6a-methoxy-3-methyl-7,9,12,14-tetraoxo-5,6,6a,7,9,12,14,14a-octahydrobenzo[a]tetracene-2-carboxylate 2,2,2-trifluoroacetate], the MIC lay in the range of 2 to 4 µg/mL (≈ 2.81 to 5.61 µM).

Values taken from US8754054B2, “Antibacterial compounds, methods of making them, and uses thereof” (Albany Molecular Research, Inc., priority 2010, dated 2014).
